Reference: the kinase profiling compilation of Christmann-Franck et al. (2016)

How the values were obtained:
Assay in all cases: SelectScreen, TR FRET
Conditions in all cases: compound 5.0 µM
EPHB3 (human) = EPHB3 (human) (UniProt P54753)
PDGFRA (human) = PDGFRA (human) (UniProt P16234)
[1] = tested on: EGFR (human), P00533 [L858R]
SGK1 (human) = SGK1 (human) (UniProt O00141)
PAK3 (human) = PAK3 (human) (UniProt O75914)
CAMK2B (human) = CAMK2B (human) (UniProt Q13554)
AKT1 (human) = AKT1 (human) (UniProt P31749)
Sequence of AKT1 (human) (P31749 whole entry, looked up): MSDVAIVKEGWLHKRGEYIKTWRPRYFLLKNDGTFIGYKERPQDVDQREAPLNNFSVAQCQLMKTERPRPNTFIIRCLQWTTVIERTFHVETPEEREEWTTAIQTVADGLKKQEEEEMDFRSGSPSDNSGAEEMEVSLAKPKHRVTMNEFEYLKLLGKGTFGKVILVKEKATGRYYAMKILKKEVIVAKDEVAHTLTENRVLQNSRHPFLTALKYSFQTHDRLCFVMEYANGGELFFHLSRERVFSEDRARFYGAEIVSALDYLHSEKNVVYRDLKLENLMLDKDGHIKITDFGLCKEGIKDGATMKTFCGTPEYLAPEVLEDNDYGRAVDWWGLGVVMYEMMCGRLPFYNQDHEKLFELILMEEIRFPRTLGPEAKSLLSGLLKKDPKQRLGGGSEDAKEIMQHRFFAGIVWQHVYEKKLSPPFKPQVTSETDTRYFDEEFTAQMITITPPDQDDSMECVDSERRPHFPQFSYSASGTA

ROCK2 (human) = ROCK2 (human) (UniProt O75116)
PHKG1 (human) = PHKG1 (human) (UniProt Q16816)
PASK (human) = PASK (human) (UniProt Q96RG2)
DYRK4 (human) = DYRK4 (human) (UniProt Q9NR20)
GSK3B (human) = GSK3B (human) (UniProt P49841)
CDK2 CCNA2 (human) = CDK2 CCNA2 (human) (UniProt P24941+P20248)
CAMK2A (human) = CAMK2A (human) (UniProt Q9UQM7)
EPHB1 (human) = EPHB1 (human) (UniProt P54762)
MAP2K6 (human) = MAP2K6 (human) (UniProt P52564)
CHEK2 (human) = CHEK2 (human) (UniProt O96017)
NTRK3 (human) = NTRK3 (human) (UniProt Q16288)
[2] = tested on: KIT (human), P10721 [T670I]
PLK2 (human) = PLK2 (human) (UniProt Q9NYY3)
[3] = tested on: MET (human), P08581 [M1250T]
JAK3 JH1 JH2 (human) = JAK3 JH1 JH2 (human) (UniProt P52333)
ABL2 (human) = ABL2 (human) (UniProt P42684)
DAPK3 (human) = DAPK3 (human) (UniProt O43293)
Sequence of DAPK3 (human) (O43293 whole entry, looked up): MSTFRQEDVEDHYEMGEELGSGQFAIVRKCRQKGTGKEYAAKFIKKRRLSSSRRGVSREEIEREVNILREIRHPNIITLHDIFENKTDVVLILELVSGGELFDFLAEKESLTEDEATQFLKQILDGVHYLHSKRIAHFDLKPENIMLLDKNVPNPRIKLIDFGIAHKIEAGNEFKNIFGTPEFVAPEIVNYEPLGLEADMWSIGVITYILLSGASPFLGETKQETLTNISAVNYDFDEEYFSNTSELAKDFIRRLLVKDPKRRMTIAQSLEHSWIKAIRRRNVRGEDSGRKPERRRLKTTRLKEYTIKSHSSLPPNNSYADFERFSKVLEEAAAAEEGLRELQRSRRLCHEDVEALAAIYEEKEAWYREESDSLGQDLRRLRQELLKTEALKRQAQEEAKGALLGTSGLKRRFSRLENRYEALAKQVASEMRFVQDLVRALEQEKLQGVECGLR

MAPK12 (human) = MAPK12 (human) (UniProt P53778)
Sequence of MAPK12 (human) (P53778 whole entry, looked up): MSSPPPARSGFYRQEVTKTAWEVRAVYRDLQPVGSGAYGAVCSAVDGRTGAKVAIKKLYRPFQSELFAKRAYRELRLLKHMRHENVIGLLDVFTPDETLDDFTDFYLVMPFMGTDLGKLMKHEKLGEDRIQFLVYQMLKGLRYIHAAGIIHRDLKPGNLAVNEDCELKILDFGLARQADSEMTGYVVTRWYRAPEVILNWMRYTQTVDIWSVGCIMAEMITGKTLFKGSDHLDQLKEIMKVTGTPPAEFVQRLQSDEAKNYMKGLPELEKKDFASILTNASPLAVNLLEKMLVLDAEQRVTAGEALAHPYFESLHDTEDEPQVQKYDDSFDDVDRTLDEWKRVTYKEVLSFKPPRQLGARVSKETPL

MAP2K1 (human) = MAP2K1 (human) (UniProt Q02750)
RPS6KA2 KD1 KD2 (human) = RPS6KA2 KD1 KD2 (human) (UniProt Q15349)
PRKD2 (human) = PRKD2 (human) (UniProt Q9BZL6)
Sequence of PRKD2 (human) (Q9BZL6 whole entry, looked up): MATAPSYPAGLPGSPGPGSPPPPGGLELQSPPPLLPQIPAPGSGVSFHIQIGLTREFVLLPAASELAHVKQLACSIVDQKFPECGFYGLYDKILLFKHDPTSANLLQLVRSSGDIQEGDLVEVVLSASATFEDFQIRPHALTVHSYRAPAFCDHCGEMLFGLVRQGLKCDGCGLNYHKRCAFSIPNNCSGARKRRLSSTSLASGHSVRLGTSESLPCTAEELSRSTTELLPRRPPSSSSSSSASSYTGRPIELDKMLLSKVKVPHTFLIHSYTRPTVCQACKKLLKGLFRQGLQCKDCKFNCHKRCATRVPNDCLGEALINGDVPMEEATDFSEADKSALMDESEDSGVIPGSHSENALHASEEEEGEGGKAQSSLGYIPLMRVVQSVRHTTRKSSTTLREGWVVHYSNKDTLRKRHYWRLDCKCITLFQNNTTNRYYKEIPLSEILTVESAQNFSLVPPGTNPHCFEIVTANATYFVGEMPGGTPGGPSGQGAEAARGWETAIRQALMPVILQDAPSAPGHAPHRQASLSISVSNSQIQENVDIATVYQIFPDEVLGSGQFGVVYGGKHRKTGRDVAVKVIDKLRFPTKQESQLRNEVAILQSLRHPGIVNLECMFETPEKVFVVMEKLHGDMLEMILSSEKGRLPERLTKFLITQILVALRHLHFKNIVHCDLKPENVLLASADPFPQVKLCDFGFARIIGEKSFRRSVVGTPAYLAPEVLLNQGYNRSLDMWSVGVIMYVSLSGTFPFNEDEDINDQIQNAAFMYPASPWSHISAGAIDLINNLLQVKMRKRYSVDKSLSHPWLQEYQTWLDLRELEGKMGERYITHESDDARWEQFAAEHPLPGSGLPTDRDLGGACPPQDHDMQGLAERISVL

PRKX (human) = PRKX (human) (UniProt P51817)
PLK3 (human) = PLK3 (human) (UniProt Q9H4B4)
IKBKB (human) = IKBKB (human) (UniProt O14920)
Sequence of IKBKB (human) (O14920 whole entry, looked up): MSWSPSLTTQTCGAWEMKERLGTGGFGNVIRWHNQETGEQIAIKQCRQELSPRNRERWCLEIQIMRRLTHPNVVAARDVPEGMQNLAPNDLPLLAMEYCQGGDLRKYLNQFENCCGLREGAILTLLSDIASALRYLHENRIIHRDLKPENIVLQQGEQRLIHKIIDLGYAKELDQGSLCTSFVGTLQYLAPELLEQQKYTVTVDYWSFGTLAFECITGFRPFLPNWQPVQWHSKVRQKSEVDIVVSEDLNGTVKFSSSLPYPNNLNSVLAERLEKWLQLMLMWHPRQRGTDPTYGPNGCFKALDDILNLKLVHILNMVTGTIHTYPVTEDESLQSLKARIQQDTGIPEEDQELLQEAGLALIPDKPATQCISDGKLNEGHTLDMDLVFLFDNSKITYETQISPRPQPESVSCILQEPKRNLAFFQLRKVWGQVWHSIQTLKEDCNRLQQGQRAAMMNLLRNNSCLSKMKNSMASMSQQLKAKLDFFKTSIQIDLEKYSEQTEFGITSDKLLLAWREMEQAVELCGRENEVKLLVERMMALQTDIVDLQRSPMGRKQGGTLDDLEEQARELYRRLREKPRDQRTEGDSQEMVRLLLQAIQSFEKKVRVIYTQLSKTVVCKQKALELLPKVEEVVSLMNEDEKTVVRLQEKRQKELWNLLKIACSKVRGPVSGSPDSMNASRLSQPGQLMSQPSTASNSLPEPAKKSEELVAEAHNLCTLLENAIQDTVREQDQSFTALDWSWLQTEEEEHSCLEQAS

MUSK (human) = MUSK (human) (UniProt O15146)
PRKCB1 (human) = PRKCB1 (human) (UniProt P05771)
FGFR1 (human) = FGFR1 (human) (UniProt P11362)
PRKCA (human) = PRKCA (human) (UniProt P17252)
PKN1 (human) = PKN1 (human) (UniProt Q16512)
[4] = tested on: LYN (human), P07948 [23-43 del]
NEK1 (human) = NEK1 (human) (UniProt Q96PY6)
PRKCE (human) = PRKCE (human) (UniProt Q02156)
Sequence of PRKCE (human) (Q02156 whole entry, looked up): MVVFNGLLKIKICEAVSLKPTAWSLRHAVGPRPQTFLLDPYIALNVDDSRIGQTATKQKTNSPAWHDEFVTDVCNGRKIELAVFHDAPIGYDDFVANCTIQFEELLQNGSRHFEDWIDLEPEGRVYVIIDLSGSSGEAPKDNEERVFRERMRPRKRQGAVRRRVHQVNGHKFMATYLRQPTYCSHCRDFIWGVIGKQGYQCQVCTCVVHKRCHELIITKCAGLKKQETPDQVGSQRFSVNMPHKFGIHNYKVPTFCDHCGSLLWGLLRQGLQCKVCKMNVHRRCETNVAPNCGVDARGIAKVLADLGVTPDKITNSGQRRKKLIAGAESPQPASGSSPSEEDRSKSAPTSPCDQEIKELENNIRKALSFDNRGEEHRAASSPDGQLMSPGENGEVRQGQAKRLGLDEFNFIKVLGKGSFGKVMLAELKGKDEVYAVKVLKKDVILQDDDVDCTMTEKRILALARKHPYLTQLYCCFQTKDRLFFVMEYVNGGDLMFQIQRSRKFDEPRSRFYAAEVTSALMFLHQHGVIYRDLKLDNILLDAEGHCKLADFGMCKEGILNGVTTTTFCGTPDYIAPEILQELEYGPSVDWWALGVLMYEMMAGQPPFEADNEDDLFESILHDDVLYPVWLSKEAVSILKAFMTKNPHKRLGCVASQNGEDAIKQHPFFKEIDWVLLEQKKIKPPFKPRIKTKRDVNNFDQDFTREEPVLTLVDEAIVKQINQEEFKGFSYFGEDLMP

STK3 (human) = STK3 (human) (UniProt Q13188)

Sequence of PDGFRA (human) (P16234 whole entry, looked up): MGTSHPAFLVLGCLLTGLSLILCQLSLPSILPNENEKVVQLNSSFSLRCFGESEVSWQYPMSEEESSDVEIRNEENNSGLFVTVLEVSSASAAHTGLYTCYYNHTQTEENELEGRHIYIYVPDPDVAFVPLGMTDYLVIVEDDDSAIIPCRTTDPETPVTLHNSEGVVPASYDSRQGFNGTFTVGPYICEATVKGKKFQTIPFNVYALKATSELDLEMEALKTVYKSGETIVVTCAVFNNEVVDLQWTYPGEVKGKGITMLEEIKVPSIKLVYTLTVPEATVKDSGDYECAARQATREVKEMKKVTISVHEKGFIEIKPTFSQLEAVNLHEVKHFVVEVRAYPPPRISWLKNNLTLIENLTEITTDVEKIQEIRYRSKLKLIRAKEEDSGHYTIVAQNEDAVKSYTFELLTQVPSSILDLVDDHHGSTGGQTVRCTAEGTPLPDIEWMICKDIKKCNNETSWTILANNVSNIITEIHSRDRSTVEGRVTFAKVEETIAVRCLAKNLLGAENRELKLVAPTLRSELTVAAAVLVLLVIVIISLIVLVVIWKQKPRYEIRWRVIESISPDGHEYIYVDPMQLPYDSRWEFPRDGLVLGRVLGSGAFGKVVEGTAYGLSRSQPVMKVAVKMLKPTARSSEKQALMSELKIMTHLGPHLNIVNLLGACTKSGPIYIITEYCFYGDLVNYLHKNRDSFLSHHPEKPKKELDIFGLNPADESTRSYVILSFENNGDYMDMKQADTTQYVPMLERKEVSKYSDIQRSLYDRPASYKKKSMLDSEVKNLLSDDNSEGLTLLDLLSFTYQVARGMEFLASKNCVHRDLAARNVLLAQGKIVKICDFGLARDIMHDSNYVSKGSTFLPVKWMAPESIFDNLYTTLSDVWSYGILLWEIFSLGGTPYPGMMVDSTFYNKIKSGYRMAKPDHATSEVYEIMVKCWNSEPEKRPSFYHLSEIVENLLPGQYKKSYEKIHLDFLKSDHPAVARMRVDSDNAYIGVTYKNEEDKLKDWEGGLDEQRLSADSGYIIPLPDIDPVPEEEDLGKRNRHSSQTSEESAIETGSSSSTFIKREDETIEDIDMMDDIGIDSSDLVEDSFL

Compound: Nc1cc(C(F)(F)F)c(-c2cc(N3CCOCC3)nc(N3CCOCC3)n2)cn1
- inhibition (EPHB3 (human)): -1%
- inhibition (PDGFRA (human)): 5%
- inhibition [1]: 12%
- inhibition (SGK1 (human)): 25%
- inhibition (PAK3 (human)): -1%
- inhibition (CAMK2B (human)): 9%
- inhibition (AKT1 (human)): 2%
- inhibition (ROCK2 (human)): 3%
- inhibition (PHKG1 (human)): 11%
- inhibition (PASK (human)): -1%
- inhibition (DYRK4 (human)): 3%
- inhibition (GSK3B (human)): 7%
- inhibition (CDK2 CCNA2 (human)): 2%
- inhibition (CAMK2A (human)): 2%
- inhibition (EPHB1 (human)): 3%
- inhibition (MAP2K6 (human)): 6%
- inhibition (CHEK2 (human)): 17%
- inhibition (NTRK3 (human)): 4%
- inhibition [2]: 13%
- inhibition (PLK2 (human)): -2%
- inhibition [3]: 1%
- inhibition (JAK3 JH1 JH2 (human)): 7%
- inhibition (ABL2 (human)): -3%
- inhibition (DAPK3 (human)): 1%
- inhibition (MAPK12 (human)): 3%
- inhibition (MAP2K1 (human)): 4%
- inhibition (RPS6KA2 KD1 KD2 (human)): 4%
- inhibition (PRKD2 (human)): 2%
- inhibition (PRKX (human)): 0%
- inhibition (PLK3 (human)): 1%
- inhibition (IKBKB (human)): -2%
- inhibition (MUSK (human)): 5%
- inhibition (PRKCB1 (human)): 30%
- inhibition (FGFR1 (human)): 4%
- inhibition (PRKCA (human)): 4%
- inhibition (PKN1 (human)): 9%
- inhibition [4]: 3%
- inhibition (NEK1 (human)): 8%
- inhibition (PRKCE (human)): 2%
- inhibition (STK3 (human)): 5%
